Values joined by “and” are separate entries in the source; they are usually repeats but may differ in a detail not shown here. Equal entries are not always repeated. “Also recorded” adds a separate entry of the source. Where two headings read alike, the source gives them in different places.
How the values were obtained:
Type in all cases: cell-based
[1] = molecular target: T1, wild-type TRPM8 (Mus musculus, UniProt Q8R4D5); assay: whole-cell patch-clamp recording of ligand activation
T1 construct: expressed in transfected cells; host or cells: HEK293T
T1 sequence (Q8R4D5 whole entry): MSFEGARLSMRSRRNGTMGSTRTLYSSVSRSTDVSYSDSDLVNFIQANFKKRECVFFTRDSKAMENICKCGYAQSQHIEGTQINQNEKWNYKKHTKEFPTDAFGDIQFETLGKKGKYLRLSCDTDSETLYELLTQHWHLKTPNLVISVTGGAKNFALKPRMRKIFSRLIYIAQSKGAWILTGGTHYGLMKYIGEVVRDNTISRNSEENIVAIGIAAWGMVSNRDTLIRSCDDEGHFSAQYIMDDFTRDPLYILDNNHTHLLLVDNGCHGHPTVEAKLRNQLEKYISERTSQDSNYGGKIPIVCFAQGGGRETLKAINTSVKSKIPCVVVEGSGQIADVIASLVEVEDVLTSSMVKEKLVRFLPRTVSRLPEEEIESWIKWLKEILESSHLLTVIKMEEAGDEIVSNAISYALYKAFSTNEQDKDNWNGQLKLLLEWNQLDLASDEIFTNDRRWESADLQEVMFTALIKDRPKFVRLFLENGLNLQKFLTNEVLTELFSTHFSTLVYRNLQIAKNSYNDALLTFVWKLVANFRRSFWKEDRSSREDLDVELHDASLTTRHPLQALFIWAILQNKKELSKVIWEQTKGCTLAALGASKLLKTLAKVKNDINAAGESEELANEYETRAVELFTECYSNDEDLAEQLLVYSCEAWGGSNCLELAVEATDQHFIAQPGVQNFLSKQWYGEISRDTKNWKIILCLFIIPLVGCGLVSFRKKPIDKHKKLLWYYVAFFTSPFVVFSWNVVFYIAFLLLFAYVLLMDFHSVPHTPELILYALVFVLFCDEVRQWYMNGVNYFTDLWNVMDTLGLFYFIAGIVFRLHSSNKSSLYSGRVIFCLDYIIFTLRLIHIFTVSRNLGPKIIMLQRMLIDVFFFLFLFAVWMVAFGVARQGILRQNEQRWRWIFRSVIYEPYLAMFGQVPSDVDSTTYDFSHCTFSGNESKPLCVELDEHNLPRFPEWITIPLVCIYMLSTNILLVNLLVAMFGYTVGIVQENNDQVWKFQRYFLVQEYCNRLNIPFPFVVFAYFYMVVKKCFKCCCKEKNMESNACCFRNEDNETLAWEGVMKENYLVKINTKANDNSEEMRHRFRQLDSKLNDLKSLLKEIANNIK
Procedure: Murine TRPM8 was used in this study. Point mutations were made by Fast Mutagenesis Kit V2 (SBS Genetech). Primers used to generate point mutations are summarized in Supplementary Table 2.
Cells were transiently transfected with cDNA constructs by Lipofectamine 3000 (Life Technologies) following the manufacturer’s protocol. Patch-clamp recordings were performed 1–2 days after transfection.
(§1) Patch-clamp recordings were performed with a HEKA EPC10 amplifier controlled by PatchMaster software (HEKA). Whole-cell recordings were performed at ±80 mV. Patch pipettes were prepared from borosilicate glass and fire-polished to resistance of ~4 MΩ. For whole-cell recording, serial resistance was compensated by 60%. For single-channel recordings, patch pipettes were fire-polished to a higher resistance of 6-to-10 MΩ and then recorded in the inside-out configuration. To maximize the chance of obtaining a patch with only one channel, single-channel recordings were performed about 8 h after transfection. A solution with 130 mM NaCl, 10 mM glucose, 0.2 mM EDTA, and 3 mM HEPES (pH 7.2) was used in both bath and pipette for either whole-cell or single-channel recordings. Membrane potential was clamped at +80 mV for single-channel recordings. Current was sampled at 10 kHz and filtered at 2.9 kHz. All recordings were performed at room temperature (22 °C) with the maximum variation of 1 °C.
(§2) Ligands such as menthol and its analogs were perfused to membrane patch by a gravity-driven system (RSC-200, Bio-Logic). Bath and ligand solution were delivered through separate tubes to minimize the mixing of solutions. Patch pipette was placed in front of the perfusion tube outlet.
Data from whole-cell recordings were analyzed in Igor Pro version 6.1 (WaveMatrix). EC50 values were derived from fitting a Hill equation to the concentration–response relationship. […] To distinguish these possibilities, dissociation constant (Kd) for ligand binding was estimated assuming the following gating scheme:1 C0↔KdC1↔LO, where L is the equilibrium constant for the final closed-to-open transition.

[2] = molecular target: T2, TRPM8 L843V (Mus musculus, UniProt Q8R4D5, L843V); assay: whole-cell patch-clamp and thermodynamic mutant cycle analysis
T2 construct: expressed in transfected cells; host or cells: HEK293T
T2 sequence (Q8R4D5 whole entry L843V): as the sequence (Q8R4D5 whole entry) above, with L843V counted along it
Procedure: (§3) Murine TRPM8 was used in this study. Point mutations were made by Fast Mutagenesis Kit V2 (SBS Genetech). Primers used to generate point mutations are summarized in Supplementary Table 2. All mutations were confirmed by sequencing.
(§4) HEK293T cells purchased from Kunming Cell Bank, Kunming Institute of Zoology, Chinese Academy of Sciences (ATCC, CRL-3216) were cultured in Dulbecco’s modified Eagle’s medium supplemented with 20 mM L-glutamine and 10% fetal bovine serum. Cells were transiently transfected with cDNA constructs by Lipofectamine 3000 (Life Technologies) following the manufacturer’s protocol. Patch-clamp recordings were performed 1–2 days after transfection.
as §1, §2
(§5) Data from whole-cell recordings were analyzed in Igor Pro version 6.1 (WaveMatrix). EC50 values were derived from fitting a Hill equation to the concentration–response relationship. Changes in EC50 by point mutation may be caused by either perturbation of ligand bind or channel gating or both. To distinguish these possibilities, dissociation constant (Kd) for ligand binding was estimated assuming the following gating scheme:1 C0↔KdC1↔LO, where L is the equilibrium constant for the final closed-to-open transition.
(§6) To perform thermodynamic cycle analysis, Kd values of four channel-ligand combinations (WT channel, menthol: Kd _1; Mutant channel, menthol: Kd _2; WT channel, menthol analog: Kd _3; Mutant channel, menthol analog: Kd _4) were determined separately. The strength of coupling was determined by the coupling energy (kT multiplied by LnΩ, where k is the Boltzmann constant and T is temperature in Kelvin). LnΩ was calculated by Eq. (2) as[51]2 LnΩ=LnKd_1⋅Kd_4/Kd_2⋅Kd_3.

[3] = molecular target: T3, TRPM8 V775A (Mus musculus, UniProt Q8R4D5, V775A); assay: as above
T3 construct: expressed in transfected cells; host or cells: HEK293T
T3 sequence (Q8R4D5 whole entry V775A): as the sequence (Q8R4D5 whole entry) above, with V775A counted along it
Procedure: as §3, §4, §1, §2, §5, §6

[4] = molecular target: T4, TRPM8 I846V (Mus musculus, UniProt Q8R4D5, I846V); assay: as above
T4 construct: expressed in transfected cells; host or cells: HEK293T
T4 sequence (Q8R4D5 whole entry I846V): as the sequence (Q8R4D5 whole entry) above, with I846V counted along it
Procedure: as §3, §4, §1, §2, §5, §6

[5] = molecular target: T5, TRPM8 Y745F (Mus musculus, UniProt Q8R4D5, Y745F); assay: as above
T5 construct: expressed in transfected cells; host or cells: HEK293T
T5 sequence (Q8R4D5 whole entry Y745F): as the sequence (Q8R4D5 whole entry) above, with Y745F counted along it
Procedure: as §3, §4, §1, §2, §5, §6

[6] = molecular target: T6, TRPM8 F839A (Mus musculus, UniProt Q8R4D5, F839A); assay: as above
T6 construct: expressed in transfected cells; host or cells: HEK293T
T6 sequence (Q8R4D5 whole entry F839A): as the sequence (Q8R4D5 whole entry) above, with F839A counted along it
Procedure: as §3, §4, §1, §2, §5, §6

[7] = molecular target: T7, TRPM8 L843A (Mus musculus, UniProt Q8R4D5, L843A); assay: as above
T7 construct: expressed in transfected cells; host or cells: HEK293T
T7 sequence (Q8R4D5 whole entry L843A): as the sequence (Q8R4D5 whole entry) above, with L843A counted along it
Procedure: as §3, §4, §1, §2, §5, §6

[8] = molecular target: T8, TRPM8 L843I (Mus musculus, UniProt Q8R4D5, L843I); assay: as above
T8 construct: expressed in transfected cells; host or cells: HEK293T
T8 sequence (Q8R4D5 whole entry L843I): as the sequence (Q8R4D5 whole entry) above, with L843I counted along it
Procedure: as §3, §4, §1, §2, §5, §6

[9] = R(kcal/K/mol) 1.99E-03, T 2.97E+02, menthol vs labelled analog
[10] = mutant cycle menthol vs labelled analog

SMILES: OC1CCCCC1 [cyclohexanol]
- activation of TRPM8 channel ([1]; up to 5 mM): failed to open; also recorded: cannot activate

SMILES: C=C(C)[C@@H]1CC[C@@H](C)C[C@H]1O [isopulegol]
- Ratio X2 (Kd menthol / Kd labelled analog) [2]: 0.4038
- Energy, Ave [2, 9]: 0.48
- Omega(X1/X2) ([2]; menthol vs labelled analog): 2.24
- Coupling Energy [2, 10]: 0.81 kT
- Ratio X2 (Kd menthol / Kd labelled analog) [3]: 2.4876
- Energy, Ave [3, 9]: -0.60
- Omega(X1/X2) ([3]; menthol vs labelled analog): 0.36
- Coupling Energy [3, 10]: 1.01 kT
- L (equilibrium constant between closed and open states upon ligand binding), Ave [4]: 41.287
- Ratio X2 (Kd menthol / Kd labelled analog) [4]: 0.02928
- concentration–response curve value, ave ([4]; 100 microM): 0.5053
- concentration–response curve value, single recording ([4]; 100 microM): 0.5194 and 0.5746 and 0.5283 and 0.3989
- concentration–response curve value, ave ([4]; 200 microM): 0.8162
- concentration–response curve value, single recording ([4]; 200 microM): 0.818 and 0.8632 and 0.783 and 0.8004
- concentration–response curve value, ave ([4]; 500 microM): 0.9296
- concentration–response curve value, single recording ([4]; 500 microM): 0.9586 and 0.8698 and 0.9387 and 0.9513
- concentration–response curve value, ave ([4]; 1000 microM): 0.9432
- concentration–response curve value, single recording ([4]; 1000 microM): 0.9846 and 0.8706 and 0.9587 and 0.9591
- concentration–response curve value, ave ([4]; 5000 microM): 0.9595
- concentration–response curve value, single recording ([4]; 5000 microM): 0.9671 and 0.952
- Energy, Ave [4, 9]: 2.02
- Kd ([4]; calculated from concentration–response curves, read-out: Kd, Ave): 4090 µM
- Omega(X1/X2) ([4]; menthol vs labelled analog): 30.85
- Coupling Energy [4, 10]: 3.43 kT
- Ratio X2 (Kd menthol / Kd labelled analog) [5]: 1.55E+00
- Energy, Ave [5, 9]: -0.32
- Omega(X1/X2) ([5]; menthol vs labelled analog): 0.58
- Coupling Energy [5, 10]: 0.54 kT
- Ratio X2 (Kd menthol / Kd labelled analog) [6]: 1.37
- Energy, Ave [6, 9]: -0.25
- Omega(X1/X2) ([6]; menthol vs labelled analog): 0.66
- Coupling Energy [6, 10]: 0.42 kT
- Ratio X2 (Kd menthol / Kd labelled analog) [7]: 34.2166
- Energy, Ave [7, 9]: -2.14
- Omega(X1/X2) ([7]; menthol vs labelled analog): 0.0264
- Coupling Energy [7, 10]: 3.63 kT
- Ratio X2 (Kd menthol / Kd labelled analog) [8]: 0.229
- Energy, Ave [8, 9]: 0.81
- Omega(X1/X2) ([8]; menthol vs labelled analog): 3.95
- Coupling Energy [8, 10]: 1.37 kT
- L (equilibrium constant between closed and open states upon ligand binding), Ave ([1]; WT): 2.233
- Ratio X1 (Kd menthol / Kd labelled analog) ([1]; WT): 0.9034
- concentration–response curve value, ave ([1]; WT, 100 microM): 0.06552
- concentration–response curve value, ave ([1]; WT, 200 microM): 0.185
- concentration–response curve value, ave ([1]; WT, 500 microM): 0.4757
- concentration–response curve value, single recording ([1]; WT, 500 microM): 0.4347 and 0.5954 and 0.3968
- concentration–response curve value, ave ([1]; WT, 1000 microM): 0.5625
- concentration–response curve value, single recording ([1]; WT, 1000 microM): 0.5176 and 0.6462 and 0.5237
- concentration–response curve value, ave ([1]; WT, 5000 microM): 0.6452
- concentration–response curve value, single recording ([1]; WT, 5000 microM): 0.5498 and 0.7014 and 0.6843
- concentration–response curve value, ave ([1]; WT, 10000 microM): 0.6337
- concentration–response curve value, single recording ([1]; WT, 10000 microM): 0.5212 and 0.6983 and 0.6816
- Kd ([1]; WT, calculated from concentration–response curves (EC50 and Po max), read-out: Kd, Ave): 1050 µM
- Kd ([1]; WT, read-out: Kd, single recording): 1320 µM and 824 µM and 542 µM and 812 µM and 1460 µM and 617 µM and 1260 µM and 1590 µM

Source: paper PMC7391767, “Molecular mechanisms underlying menthol binding and activation of TRPM8 ion channel” (Nature Communications, 2020)
